What is called EC50 is the concentration that produces a half-maximal response.

Results on 16 compounds are retold here after ChEMBL document CHEMBL3399967, “Design and discovery of 2-oxochromene derivatives as liver X receptor β-selective agonists” (Bioorg Med Chem Lett, 2015).

Experiment [1] relates to HepG2. Briefly: Induction of ABCA1 mRNA expression in human HepG2 cells at 5 uM relative to control. Type of experiment: functional.
The test system of experiment [2] is HepG2. The experiment can be described thus: Induction of SREBP-1c mRNA expression in human HepG2 cells at 5 uM relative to control. It is filed as functional.
Experiment [3] has as its system HepG2. Briefly: Ratio of induction of ABCA1 mRNA expression to SREBP-1c mRNA expression in human HepG2 cells at 5 uM. Type of experiment: functional.
The target of experiment [4] is T1, Oxysterols receptor LXR-beta (Homo sapiens, UniProt P55055).
T1 sequence (P55055 whole entry): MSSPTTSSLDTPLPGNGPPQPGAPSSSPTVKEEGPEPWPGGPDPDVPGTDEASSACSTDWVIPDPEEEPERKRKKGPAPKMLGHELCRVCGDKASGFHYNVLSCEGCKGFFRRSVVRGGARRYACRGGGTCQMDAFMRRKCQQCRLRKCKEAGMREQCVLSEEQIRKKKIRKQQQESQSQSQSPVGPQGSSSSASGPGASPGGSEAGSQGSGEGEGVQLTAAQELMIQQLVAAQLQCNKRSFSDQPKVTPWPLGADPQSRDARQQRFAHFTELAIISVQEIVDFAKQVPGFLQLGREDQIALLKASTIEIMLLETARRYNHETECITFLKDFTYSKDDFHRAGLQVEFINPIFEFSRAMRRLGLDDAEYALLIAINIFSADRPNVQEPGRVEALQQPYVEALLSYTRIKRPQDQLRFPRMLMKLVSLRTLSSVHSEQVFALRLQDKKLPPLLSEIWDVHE
The experiment can be described thus: Agonist activity at Gal4-tagged LXRbeta (unknown origin) expressed in CHOK1 cells after 24 hrs by luciferase reporter gene assay. It is filed as cell-based, CHO-K1. (In general: A reporter such as luciferase makes a cellular process visible.)

Experiment [5] deals with T2, Oxysterols receptor LXR-alpha (Homo sapiens, UniProt Q13133).
T2 sequence (Q13133 whole entry): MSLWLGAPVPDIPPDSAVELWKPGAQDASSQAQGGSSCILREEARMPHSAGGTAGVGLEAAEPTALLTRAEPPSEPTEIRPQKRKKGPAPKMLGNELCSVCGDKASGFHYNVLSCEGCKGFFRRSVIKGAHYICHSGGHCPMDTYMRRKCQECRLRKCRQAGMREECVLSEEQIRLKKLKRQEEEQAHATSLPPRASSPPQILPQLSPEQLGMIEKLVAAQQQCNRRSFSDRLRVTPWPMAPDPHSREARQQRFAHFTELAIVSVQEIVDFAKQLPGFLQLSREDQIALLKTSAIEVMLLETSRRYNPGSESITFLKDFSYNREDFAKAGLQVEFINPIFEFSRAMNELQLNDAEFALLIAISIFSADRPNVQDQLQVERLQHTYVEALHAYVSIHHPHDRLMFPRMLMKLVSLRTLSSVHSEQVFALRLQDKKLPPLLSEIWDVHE
Briefly: Agonist activity at Gal4-tagged LXRalpha (unknown origin) expressed in CHOK1 cells after 24 hrs by luciferase reporter gene assay. It is filed as cell-based, CHO-K1.

Structures are written as SMILES.

For `O=c1cc(C(F)(F)F)c2cc3c4c(c2o1)CCCN4CCC3`, the entries for the “fold change (FC)” value in the experiment on HepG2 [1] and in the experiment with HepG2 [2] were 9.1 and 3.9, respectively. The Ratio in the experiment on HepG2 [3] worked out at 2.3.
Taken in the same sequence, the figures for `CC(C)c1cc(=O)oc2c3c4c(cc12)CCCN4CCC3` were 5, 1.4 and 3.6.
Regarding `CCN(CC)c1ccc2c(C(F)(F)F)cc(=O)oc2c1`, the “fold change (FC)” value with HepG2 [1] is listed as 1.3; in the experiment with HepG2 [2], 3.3. In addition, the Ratio with HepG2 [3] was 0.4.
For the compound `CCCc1cc2c(C(F)(F)F)cc(=O)oc2c(CCC)c1OCCCCN1C(=O)CSC1=O`, the EC50 in experiment [4] (read-out: EC50) was determined as 1.4 µM; in experiment [5] (read-out: EC50), 2.6 µM.
Turning to `CCCc1cc2c(C(F)(F)F)cc(=O)oc2c(CCC)c1OCCCCN1C(=O)CN(C)C1=O`, the EC50 amounted to 1.3 µM in experiment [4] (read-out: EC50) and 2.6 µM in experiment [5] (read-out: EC50).
As for `CCCc1cc2c(C(F)(F)F)cc(=O)oc2c(CCC)c1OCCCCN1C(=O)CCC1=O`, the EC50 in experiment [4] (read-out: EC50) came out at 1.4 µM.
`CCCc1cc2c(C(F)(F)F)cc(=O)oc2c(CCC)c1OCCCCN1CCOC1=O`: the EC50 in experiment [4] (read-out: EC50) was 2.2 µM.
As to `CCCc1cc2c(C(F)(F)F)cc(=O)oc2c(CCC)c1OCCCCN1CCCC1=O`, the EC50 result in experiment [4] (cho-k1) and in experiment [5] (cho-k1) was “Not Active” in each case.
As for `CCCc1cc2c(C(F)(F)F)cc(=O)oc2c(CCC)c1OCCCCN1C(=O)C(C)N(C)C1=O` (stereo not drawn), the EC50 in experiment [4] (read-out: EC50) was 1.3 µM; in experiment [5] (read-out: EC50), 1.7 µM.
For `CCCc1cc2c(C(F)(F)F)cc(=O)oc2c(CCC)c1OCCCCN1C(=O)N(C)C(C)(C)C1=O`, the EC50 was found to be 4.7 µM in experiment [4] (read-out: EC50) and 11 µM in experiment [5] (read-out: EC50).
Taken in the same sequence, the figures for `CCCc1cc2c(C(F)(F)F)cc(=O)oc2c(CCC)c1OCCCCN1C(=O)NC(C)C1=O` (stereo not drawn) were 1.3 µM and 1.5 µM.
On to `CCCc1cc2c(C(F)(F)F)cc(=O)oc2c(CCC)c1OCCCCN1C(=O)N(C)C(C)(c2ccccc2)C1=O` (stereo not drawn), for which the EC50 result in experiment [4] (cho-k1) and in experiment [5] (cho-k1) was “Not Active” in each case.
With `CCCc1cc2c(C(F)(F)F)cc(=O)oc2c(CCC)c1OCCCCN1C(=O)NC(C)(c2ccccc2)C1=O` (stereo not drawn), the EC50 was 5.3 µM in experiment [4] (read-out: EC50) and “Not Active” in experiment [5] (cho-k1).
Taken in the same sequence, the figures for `CCCc1cc2c(C(F)(F)F)cc(=O)oc2c(CCC)c1OCCCCN1C(=O)NC(C)(c2ccc(C)cc2)C1=O` (stereo not drawn) were 2.4 µM and “Not Active”.
Regarding `CCCc1cc2c(C(F)(F)F)cc(=O)oc2c(CCC)c1OCCCCN1C(=O)NC(C)(c2ccccc2OC)C1=O` (stereo not drawn), the EC50 result in experiment [4] (cho-k1) and in experiment [5] (cho-k1) was “Not Active” each time.
On to `CCCc1cc2c(C(F)(F)F)cc(=O)oc2c(CCC)c1OCCCCN1C(=O)NC(C)(c2cccc(OC)c2)C1=O` (stereo not drawn), for which the EC50 entry in experiment [4] (cho-k1) and in experiment [5] (cho-k1) was “Not Active” throughout.
